US20230167073A1 (Teijin Pharma Limited, priority 2020, published 2023)

Biological target: T1, Human TRPC6 (Homo sapiens, UniProt Q9Y210)
T1 construct: expressed in transfected cells
T1 sequence (Q9Y210 1-931): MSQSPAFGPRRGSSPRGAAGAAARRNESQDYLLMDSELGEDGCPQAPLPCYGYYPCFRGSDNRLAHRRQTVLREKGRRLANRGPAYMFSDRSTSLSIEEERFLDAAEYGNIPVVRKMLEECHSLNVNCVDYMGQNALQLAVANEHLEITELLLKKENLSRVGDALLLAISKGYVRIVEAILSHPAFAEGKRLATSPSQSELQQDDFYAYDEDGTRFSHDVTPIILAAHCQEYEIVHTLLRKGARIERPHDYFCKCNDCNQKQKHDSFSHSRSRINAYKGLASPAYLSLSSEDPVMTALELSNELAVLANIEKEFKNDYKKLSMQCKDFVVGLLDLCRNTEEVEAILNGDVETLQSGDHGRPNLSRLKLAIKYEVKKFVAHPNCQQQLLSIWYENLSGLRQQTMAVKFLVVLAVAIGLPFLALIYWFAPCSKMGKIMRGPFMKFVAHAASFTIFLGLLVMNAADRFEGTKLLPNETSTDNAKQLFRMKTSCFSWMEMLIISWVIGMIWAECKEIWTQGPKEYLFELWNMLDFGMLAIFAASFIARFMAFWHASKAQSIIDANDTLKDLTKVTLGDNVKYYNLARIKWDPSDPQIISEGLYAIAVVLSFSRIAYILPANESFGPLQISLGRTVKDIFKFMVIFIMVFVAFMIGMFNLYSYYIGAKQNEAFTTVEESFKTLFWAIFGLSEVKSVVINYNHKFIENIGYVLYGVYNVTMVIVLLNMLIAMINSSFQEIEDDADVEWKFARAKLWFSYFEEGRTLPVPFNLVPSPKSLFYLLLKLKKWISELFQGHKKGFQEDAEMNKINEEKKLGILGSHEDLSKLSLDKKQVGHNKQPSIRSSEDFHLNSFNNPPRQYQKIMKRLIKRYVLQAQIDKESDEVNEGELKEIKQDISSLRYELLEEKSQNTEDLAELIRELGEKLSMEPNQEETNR
Assay: Evaluation of TRPC6 channel inhibitory activity (2), HEK293 cells with stably introduced human TRPC6, OAG stimulation, FLIPR tetra (Compound Nos. 1293 to 1405)
Assay type: cell-based
Details: HEK293 cells with stably introduced human TRPC6, OAG 50 μM/0.5% DMSO, read-out: Inhibitory activity (pIC50 class) (converted)
Experimental: Evaluation of TRPC6 Channel Inhibitory Activity (2) (Compound Nos. 1293 to 1405)
The activity of the TRPC6 inhibitor was measured by stimulating HEK293 cells, in which human TRPC6 was stably introduced, with OAG (1-Oleoyl-2-acetyl-sn-glycerol, Miliipore Sigma, 06754), using the FLIPR tetra system. The cells were proliferated in a humid environment at 37° C. 5% CO2 using a growth medium (DMEM (Dulbecco's Modified Eagle's Medium) high glucose containing 10% fetal bovine serum, 1×PSGlu (penicillin-streptomycin glutamine), 1×NEAA (Non-essential amino acid), sodium pyruvate and 200 μg/mL hyglomycin. For cell subculture, the cells were proliferated to 70-90% confluence, and gently washed twice with PBS (phosphate-buffered saline) free of calcium and magnesium after removing the medium. Then, the cells were incubated at 37° C. for 5 minutes after adding trypsin (3 mL), peeled off by tapping the flask at the base of the hand, 7 mL of growth medium was added to inactivate trypsin, and then the cells were resuspended. Usually, the cells were separated every 2-3 days to become a cell density of ⅕. The day before evaluation, the cells were seeded in a poly-D-lysine (PDL) coated 384-well plate using a multi-channel pipette or multidrop at a cell density of 1.0-1.5×10^4 cells/25 μL/well. After culturing overnight in a PDL-coated 384 Blackwell plate, a fluorescent dye buffer was added first to the cells and the cells were cultured at room temperature for 90-120 minutes. For preparing 10 mL of fluorescent dye buffer, 9 mL of assay buffer, 1 mL of 10×PBX signal enhancer, and 10 μL of calcium indicator were mixed. Cells treated with the compounds of each level 25 minutes before the stimulation with OAG of TRPC6 agonist were incubated. OAG solution was prepared by adding OAG to assay buffer (Ca ringer solution base: 10 mM HEPES (4-(2-hydroxyethyl)-1-piperazine-ethanesulfonic acid), 4 mM MgCl2, 120 mM NaCl, 5 mM KCl, pH=7.2 (25° C.)+0.1% BSA+2 mM CaCl2)) to give an OAG concentration of 0.2 mM/2% DMSO. The final concentration of OAG added to the cells is 50 μM/0.5% DMSO. A volume of 12.5 μL of OAG solution was added, and activation of TRPC6 channel was measured using the FLIPR tetra system assaying the change in intracellular calcium level as an index. The 180 seconds imaging frame was defined as the background signal, and the subtraction of the background signal from the raw data was used as the fluorescence peak signal. Each fluorescence peak signal is standardized using an OAG-induced signal and buffer-induced signal as 100% and 0%, respectively. The inhibition rate obtained by plotting the peak signal after the addition of the compounds of each level was analyzed by a four-parameter logistic regression to quantify the inhibition rate in the logarithm of the inverse of the effective concentration which gives a 50% inhibition rate (pIC50). The intensity was expressed by the above-mentioned symbols (+, ++, +++).

| IC50 | Compound |
| --- | --- |
| > 1 µM | Cn1nc(C2CC2)cc1Oc1cc(F)ccc1-c1ncc(C(F)CN)cn1 (stereo in doubt) [compound 1381, (2S)-2-[2-[2-(5-cyclopropyl-2-methylpyrazol-3-yl)oxy-4-fluorophenyl]pyrimidin-5-yl]-2-fluoroethanamine] |
| > 1 µM | Cn1nc(C2CC2)cc1Oc1cc(C#N)ccc1-c1ccc(C(F)(F)CN)nc1 [compound 1294, 4-[6-(2-amino-1,1-difluoroethyl)pyridin-3-yl]-3-(5-cyclopropyl-2-methylpyrazol-3-yl)oxybenzonitrile] |
| < 0.01 µM | Cn1nc(-c2ccccn2)cc1Oc1cc(C#N)ccc1-c1ncc([C@@H](F)CN)cn1 [compound 1295, 4-[5-[(1R)-2-amino-1-fluoroethyl]pyrimidin-2-yl]-3-(2-methyl-5-pyridin-2-ylpyrazol-3-yl)oxybenzonitrile] |
| < 0.01 µM | Cn1nc(-c2ccccn2)cc1Oc1cc(C#N)ccc1-c1ncc([C@H](F)CN)cn1 [compound 1296, 4-[5-[(1S)-2-amino-1-fluoroethyl]pyrimidin-2-yl]-3-(2-methyl-5-pyridin-2-ylpyrazol-3-yl)oxybenzonitrile] |
| 0.01 to 1 µM | Cc1cc(Oc2cc(C#N)ccc2-c2ccc3c(n2)CNC3)cc(N2CCOCC2)n1 [compound 1297, 4-(6,7-dihydro-5H-pyrrolo[3,4-b]pyridin-2-yl)-3-(2-methyl-6-morpholin-4-ylpyridin-4-yl)oxybenzonitrile] |
| 0.01 to 1 µM | Cc1cc(Oc2cc(C#N)ccc2-c2ncc(CN)cn2)nc(N2CCOCC2)n1 [compound 1298, 4-[5-(aminomethyl)pyrimidin-2-yl]-3-(6-methyl-2-morpholin-4-ylpyrimidin-4-yl)oxybenzonitrile] |
| < 0.01 µM | Cc1cc(Oc2cc(C#N)ccc2-c2ccc([C@@H](F)CN)cn2)cc(N2CCOCC2)n1 [compound 1299, 4-[5-[(1R)-2-amino-1-fluoroethyl]pyridin-2-yl]-3-(2-methyl-6-morpholin-4-ylpyridin-4-yl)oxybenzonitrile] |
| < 0.01 µM | Cc1cc(Oc2cc(C#N)ccc2-c2ccc([C@H](F)CN)cn2)cc(N2CCOCC2)n1 [compound 1300, 4-[5-[(1S)-2-amino-1-fluoroethyl]pyridin-2-yl]-3-(2-methyl-6-morpholin-4-ylpyridin-4-yl)oxybenzonitrile] |
| < 0.01 µM | Cn1nc(-c2ccccn2)cc1Oc1cc(C#N)ccc1-c1ccc([C@@H](F)CN)cn1 [compound 1301, 4-[5-[(1R)-2-amino-1-fluoroethyl]pyridin-2-yl]-3-(2-methyl-5-pyridin-2-ylpyrazol-3-yl)oxybenzonitrile] |
| < 0.01 µM | Cn1nc(-c2ccccn2)cc1Oc1cc(C#N)ccc1-c1ccc([C@H](F)CN)cn1 [compound 1302, 4-[5-[(1S)-2-amino-1-fluoroethyl]pyridin-2-yl]-3-(2-methyl-5-pyridin-2-ylpyrazol-3-yl)oxybenzonitrile] |
| > 1 µM | Cc1cc(Oc2cc(C#N)ccc2-c2cccc3cnc(N)nc23)cc(N2CCOCC2)n1 [compound 1303, 4-(2-aminoquinazolin-8-yl)-3-(2-methyl-6-morpholin-4-ylpyridin-4-yl)oxybenzonitrile] |
| < 0.01 µM | Cc1cc(Oc2cc(C#N)ccc2-c2ccc(CN)c(C)n2)cc(N2CCOCC2)n1 [compound 1304, 4-[5-(aminomethyl)-6-methylpyridin-2-yl]-3-(2-methyl-6-morpholin-4-ylpyridin-4-yl)oxybenzonitrile] |
| 0.01 to 1 µM | COc1nc(-c2ccc(C#N)cc2Oc2cc(C)nc(N3CCOCC3)c2)ccc1CN [compound 1305, 4-[5-(aminomethyl)-6-methoxypyridin-2-yl]-3-(2-methyl-6-morpholin-4-ylpyridin-4-yl)oxybenzonitrile] |
| < 0.01 µM | Cn1nc([C@@H]2CCOC2)cc1Oc1cc(C#N)ccc1-c1ccc(CN)cn1 [compound 1306, 4-[5-(aminomethyl)pyridin-2-yl]-3-[2-methyl-5-[(3S)-oxolan-3-yl]pyrazol-3-yl]oxybenzonitrile] |
| > 1 µM | CNc1ccc(-c2ccc(C#N)cc2Oc2cc(C)nc(N3CCOCC3)c2)nc1 [compound 1307, 4-[5-(methylamino)pyridin-2-yl]-3-(2-methyl-6-morpholin-4-ylpyridin-4-yl)oxybenzonitrile] |
| 0.01 to 1 µM | Cn1nc([C@@H]2CCOC2)cc1Oc1cc(C#N)ccc1-c1ncc(CN)cn1 [compound 1308, 4-[5-(aminomethyl)pyrimidin-2-yl]-3-[2-methyl-5-[(3S)-oxolan-3-yl]pyrazol-3-yl]oxybenzonitrile] |
| 0.01 to 1 µM | Cn1cc(-c2cc(Oc3cc(C#N)ccc3-c3ccc(CN)cn3)n(C)n2)cn1 [compound 1309, 4-[5-(aminomethyl)pyridin-2-yl]-3-[2-methyl-5-(1-methylpyrazol-4-yl)pyrazol-3-yl]oxybenzonitrile] |
| 0.01 to 1 µM | COc1nc(-c2ccc(C#N)cc2Oc2cc(-c3ccccn3)nn2C)ccc1CN [compound 1310, 4-[5-(aminomethyl)-6-methoxypyridin-2-yl]-3-(2-methyl-5-pyridin-2-ylpyrazol-3-yl)oxybenzonitrile] |
| 0.01 to 1 µM | Cc1cc(Oc2cc(Cl)ccc2-c2ncc(CCN)cn2)cc(N2CCOCC2)n1 [compound 1311, 2-[2-[4-chloro-2-(2-methyl-6-morpholin-4-ylpyridin-4-yl)oxyphenyl]pyrimidin-5-yl]ethanamine] |
| < 0.01 µM | Cn1nc(-c2ccccn2)cc1Oc1cc(C#N)ccc1-c1ccc(C(F)(F)CN)cn1 [compound 1312, 4-[5-(2-amino-1,1-difluoroethyl)pyridin-2-yl]-3-(2-methyl-5-pyridin-2-ylpyrazol-3-yl)oxybenzonitrile] |
| 0.01 to 1 µM | Cn1nc(C2CCOCC2)cc1Oc1cc(C#N)ccc1-c1ncc([C@@H](F)CN)cn1 [compound 1313, 4-[5-[(1R)-2-amino-1-fluoroethyl]pyrimidin-2-yl]-3-[2-methyl-5-(oxan-4-yl)pyrazol-3-yl]oxybenzonitrile] |
| 0.01 to 1 µM | Cn1nc(C2CCOCC2)cc1Oc1cc(C#N)ccc1-c1ncc([C@H](F)CN)cn1 [compound 1314, 4-[5-[(1S)-2-amino-1-fluoroethyl]pyrimidin-2-yl]-3-[2-methyl-5-(oxan-4-yl)pyrazol-3-yl]oxybenzonitrile] |
| 0.01 to 1 µM | Cc1cc(Oc2cc(Cl)ccc2-c2ncc(CN)cn2)cc(N2CCOCC2)n1 [compound 1315, [2-[4-chloro-2-(2-methyl-6-morpholin-4-ylpyridin-4-yl)oxyphenyl]pyrimidin-5-yl]methanamine] |
| < 0.01 µM | Cn1nc(-c2ccccn2)cc1Oc1cc(C#N)ccc1-c1cc(Cl)c(CN)cn1 [compound 1316, 4-[5-(aminomethyl)-4-chloropyridin-2-yl]-3-(2-methyl-5-pyridin-2-ylpyrazol-3-yl)oxybenzonitrile] |
| < 0.01 µM | Cn1nc([C@H]2CCCO2)cc1Oc1cc(C#N)ccc1-c1ccc(CCN)cn1 [compound 1317] |
